Publication PMC8781304, “Arene-Ruthenium(II) Complexes with Carbothiamidopyrazoles as a Potential Alternative for Antibiotic Resistance in Human” (Molecules, 2022)
≈ marks a conversion by molar mass, not a printed value. Where two headings read alike, the source gives them in different places.

Key:
[1] = test system: Candida albicans ATCC 10231; test: MIC and MBC/MFC by broth microdilution; assay type: cell-based; conditions: C. albicans ATCC 10231
Protocol: (§1) Reference strains of bacteria and fungi: Staphylococcus aureus ATCC 29213, Staphylococcus epidermidis ATCC 12228, Enterococcus faecalis ATCC 29212, Pseudomonas aeruginosa ATCC 25619, Proteus vulgaris ATCC 8427, and Candida albicans ATCC 10231 (Manassas, VA, USA) were used to screen the antimicrobial activity of the arene-ruthenium(II) complexes 3a-3d, NH4PF6 and selected antibiotics. The microorganisms were grown for 24 h (bacteria) or 48 h (fungi) in 35-37 °C in tryptic-soy agar (TSA; BTL Sp. z o.o., Łódź, Poland) or Sabouraud's dextrose agar (SDA; BTL Sp. z o.o., Łódź, Poland) according to nutritional requirements. Microbial suspensions at a density of about 5 × 10^5 CFU/mL were prepared in Mueller-Hinton broth (MHB; BTL Sp. z o.o., Łódź, Poland) or RPMI-1640 medium (Sigma, St. Louis, MO, USA) for bacteria and fungi, respectively. […] Louis, MO, USA). Stock solutions of the lyophilized compounds were freshly prepared in 100% DMSO (POCh, Gliwice, Poland) for the complexes, or in water for injection (Sigma, St. Louis, MO, USA) in the case of antibiotics. […] MIC and MBC/MFC were defined as the lowest concentrations of the compounds inhibiting bacterial/fungal growth or able to kill added microbial inoculum, respectively, and were evaluated as described by […] et al.. Experiments were carried out in duplicate.

[2] = test system: Enterococcus faecalis ATCC 29212; test: MIC and MBC/MFC by broth microdilution; assay type: cell-based; conditions: E. faecalis ATCC 29212
Protocol: as §1

[3] = test system: Proteus vulgaris ATCC 8427; test: MIC and MBC/MFC by broth microdilution; assay type: cell-based; conditions: P. vulgaris ATCC 8427
Protocol: as §1

[4] = test system: Pseudomonas aeruginosa ATCC 25619; test: MIC and MBC/MFC by broth microdilution; assay type: cell-based; conditions: P. aeruginosa ATCC 25619
Protocol: as §1

[5] = test system: Staphylococcus aureus ATCC 29213; test: MIC and MBC/MFC by broth microdilution; assay type: cell-based; conditions: S. aureus ATCC 29213
Protocol: as §1

[6] = test system: Staphylococcus epidermidis ATCC 12228; test: MIC and MBC/MFC by broth microdilution; assay type: cell-based; conditions: S. epidermidis ATCC 12228
Protocol: as §1

S. aureus ATCC 29213 = test: Synergy with oxacillin and vancomycin, partial checkerboard broth microdilution; assay type: cell-based, Staphylococcus aureus; conditions: for FIC (Oxa) / FIC (Van): MIC antibiotic in combination/MIC antibiotic alone; for MIC Oxa in Combination: oxacillin with the complex at ½ MIC (NH4PF6 250 µg/mL); for MIC Van in Combination: vancomycin with the complex at ½ MIC (NH4PF6 250 µg/mL); for MIC: Staphylococcus aureus
[7] = test system: S. epidermidis ATCC 12228; test: as above; assay type: cell-based, Staphylococcus epidermidis; conditions: for FIC (Oxa) / FIC (Van): MIC antibiotic in combination/MIC antibiotic alone; for MIC Oxa in Combination: oxacillin with the complex at ½ MIC (NH4PF6 250 µg/mL); for MIC Van in Combination: vancomycin with the complex at ½ MIC (NH4PF6 250 µg/mL); for MIC: Staphylococcus epidermidis
[8] = test system: Staphylococcus aureus ATCC 29213; test: Fluorescence microscopy, Hoechst 33258 / propidium iodide viability; assay type: cell-based; conditions: S. aureus ATCC 29213; MIC concentration, 24 h
Protocol: (§2) Staphylococcus aureus ATCC 29213 and Staphylococcus epidermidis ATCC 12228 strains were treated with tested compounds 2a–2d and 3a–3d at a concentration 1 × MIC for 24h, while untreated cells were used as a growth control. After incubation, the cells were harvested and a suspension of 1 × 10^5 cells/mL in PBS was prepared. Following this, 1 µl of the fluorescent dyes Hoechst 33258 and propidium iodide (15 µg/mL each) (Sigma, St. Louis, MO, USA) were added. The obtained mixture was incubated in the dark at room temperature for 15–20 min. After incubation, the cell suspensions, placed on glass slides, were analyzed under an Olympus IX 70 fluorescence microscope (Shinjuku, Tokyo, Japan), using a 360–370 nm UV filter. Photos were taken at 10 × 20 magnification.

[9] = test system: Staphylococcus epidermidis ATCC 12228; test: as above; assay type: cell-based; conditions: S. epidermidis ATCC 12228; MIC concentration, 24 h
Protocol: as §2

[10] = test system: human foreskin fibroblast HFF-1 (ATCC-SCRC-1041); test: Cytotoxicity, MTT reduction assay; assay type: cell-based
Protocol: The cytotoxicity of arene-ruthenium(II) complexes 3a–3d was determined using the MTT (3-(4,5-dimethylthiazol-2-yl)-2,5-diphenyltetrazolium bromide; Sigma, St. Louis, MO, USA) reduction assay and a human foreskin fibroblast HFF-1 culture (ATCC-SCRC-1041) (LGC Standards Sp. z o.o., Poland) at a final concentration range of 3.9–500 µM. The HFF-1 cells were cultured in Dulbecco’s Modified Eagle’s Medium (DMEM; Sigma, St. Louis, MO, USA) with 15% fetal bovine serum (FBS; BioWest, Nuaillé, France) and penicillin/streptomycin (100 × stock solution; BioWest, Nuaillé, France), 1 × 10^6 cell/mL (100 µL/well) in 96-well tissue culture plates (Nunc, Roskilde, Denmark) for 24 h at 37 °C/5% CO2. The cells were then exposed to arene-ruthenium(II) complexes for 24 h at 37 °C. The control (untreated) cells were exposed to culture medium alone or culture medium containing 2% DMSO to exclude the effect of the solvent used to prepare the stock solutions of the tested complexes. Next, fresh culture medium (100 µL/well) and MTT (1.5 mg/mL, 50 µL/well) were added, and cells were incubated for two hours under the above conditions. MTT was […] blue formazan crystals produced by the metabolically active cells. Finally, the MTT solution was removed and replaced with 100 µL/well of 20% sodium dodecyl sulfate (SDS; Sigma, St. Louis, MO, USA) for 24 h (room temperature) to dissolve the blue formazan. Based on the absorbance (λ = 550 nm) of tested and control cells (100% viability), the percentage of cell viability after exposure was calculated. For each sample, the experiment was performed twice.

Compound | MBC/MFC [1] [mg/L] | MIC [1] [mg/L] | MBC/MFC [2] [mg/L] | MIC [2] [mg/L] | MBC/MFC [3] [mg/L] | MIC [3] [mg/L] | MBC/MFC [4] [mg/L] | MIC [4] [mg/L] | MBC/MFC [5] [mg/L] | MIC [5] [mg/L] | MBC/MFC [6] [mg/L] | MIC [6] [mg/L] | FIC (Oxa) (S. aureus ATCC 29213; S. aureus ATCC 29213) | FIC (Van) (S. aureus ATCC 29213; S. aureus ATCC 29213) | MIC Oxa in Combination (S. aureus ATCC 29213; S. aureus ATCC 29213) [mg/L] | MIC Van in Combination (S. aureus ATCC 29213; S. aureus ATCC 29213) [mg/L] | FIC (Oxa) ([7]; S. epidermidis ATCC 12228) | FIC (Van) ([7]; S. epidermidis ATCC 12228) | MIC Oxa in Combination ([7]; S. epidermidis ATCC 12228) [mg/L] | MIC Van in Combination ([7]; S. epidermidis ATCC 12228) [mg/L] | also measured
F[P-](F)(F)(F)(F)F.[NH4+] [NH4PF6, Ammonium hexafluorophosphate] | >1000 | >1000 | >1000 | >1000 | >1000 | >1000 | >1000 | >1000 | >1000 | >1000 | >1000 | >1000 | 1 | 1 | 0.250 | 0.50 | 1 | 2 | 0.25 | 1 | Correlation with Oxa and Van (synergy), in words (S. aureus ATCC 29213; S. aureus ATCC 29213): did not show any synergistic effect; Correlation with Oxa and Van (synergy), in words ([7]; S. epidermidis ATCC 12228): did not show any synergistic effect
Cc1onc(-c2ccccc2)c1C(=O)N[C@@H]1C(=O)N2[C@@H]1SC(C)(C)[C@@H]2C(=O)O [Oxa, oxacillin, reference compound] | – | – | – | – | – | – | – | – | 0.5 (≈ 1.25 µM) | – | 0.5 (≈ 1.25 µM) | – | – | – | – | – | – | – | – | – | MIC ([5]; Staphylococcus aureus, ATCC29213, read-out: MIC): 0.25 mg/L (≈ 0.623 µM); MIC ([6]; Staphylococcus epidermidis, ATCC12228, read-out: MIC): 0.25 mg/L (≈ 0.623 µM); MIC (S. aureus ATCC 29213; ATCC29213, S. aureus ATCC 29213, oxacillin without complex, read-out: MIC Oxa Alone): 0.25 mg/L; MIC ([7]; ATCC12228, S. epidermidis ATCC 12228, oxacillin without complex, read-out: MIC Oxa Alone): 0.25 mg/L
CN[C@H](CC(C)C)C(=O)N[C@H]1C(=O)N[C@@H](CC(N)=O)C(=O)N[C@H]2C(=O)N[C@H]3C(=O)N[C@H](C(=O)N[C@H](C(=O)O)c4cc(O)cc(O)c4-c4cc3ccc4O)[C@H](O)c3ccc(c(Cl)c3)Oc3cc2cc(c3O[C@@H]2O[C@H](CO)[C@@H](O)[C@H](O)[C@H]2O[C@H]2C[C@](C)(N)[C@H](O)[C@H](C)O2)Oc2ccc(cc2Cl)[C@H]1O [Van, vancomycin, reference compound] | – | – | – | – | – | – | – | – | – | – | – | – | – | – | – | – | – | – | – | – | MIC (S. aureus ATCC 29213; ATCC29213, read-out: MIC Van Alone): 0.5 mg/L; MIC ([7]; ATCC12228, read-out: MIC Van Alone): 0.5 mg/L
[(η ^6 -p-cymene)Ru(1-[amino(thioxo)methyl]-5-hydroxy-3-methyl-1H-pyrazole)[PF6] [Compound 3d] | >1000 | >1000 | 500 | 500 | >1000 | >1000 | 1000 | 1000 | 500 | 125 | 250 | 125 | 1 | 2 | 0.250 | 1 | 0.25 | 0.06 | 0.06 | 0.03 | Change in bacterial viability (Hoechst 33258 / PI fluorescence) [8]: no significant changes in the viability; Change in bacterial viability (Hoechst 33258 / PI fluorescence) [9]: no significant changes in the viability; IC50 ([10]; HFF-1, MTT, 24 h, tested 3.9–500 μM): 892 µM; HFF-1 viability (lowest) ([10]; range 3.9–500 μM): ≥ 75%
